Read-outs that look alike come from different tables or passages of the source.

In data set [1] the test system is various experimental ulcers. The data set is described as follows: Inhibitory effects on various experimental ulcers (overall statement). The arrangement: species or system male Wistar rats. The conditions noted are these: in vivo. The protocol:
(§1) The inhibitory effects of the present compounds [I] on various experimental ulcers were tested by using male Wistar rats, weighing about 200 g, in groups of six and determining the respective ulceration indexes for 5 types of experimental ulcers. In each test, the test compounds were suspended in a 0.5% aqueous solution of carboxymethyl cellulose and administered orally in a series of appropriately selected doses ranging from 1 to 100 mg/kg. The test procedures for 5 types of experimental ulcers were as follows:
(§2) The pharmacological effect of the test compounds on each of the aforesaid experimental ulcers was evaluated on the basis of the dose (in mg/kg) required to inhibit the formation of ulcers by 50% (hereinafter referred to as ID50). The ID50 value of each test compound was determined by calculating the difference in ulceration index between the untreated group and each treated group, dividing the difference by the ulceration index of the untreated group to obtain the degree of inhibition, and constructing a dose-response curve on the basis of the data thus obtained. For purposes of comparison, the ID50 values of Omeprazole and Compounds α and β were determined in the same manner as described above and are also shown in Table 4.

A further data set can be described thus: physchem. The conditions noted are these: for remaining at 192 h: solid. The class given is physicochemical. As for the experimental part: The storage stability of the present compounds [I] was tested by allowing each test compound to stand under severe conditions (i.e., a temperature of 60° C. and a relative humidity of 75%) for 8 days and then determining its percentage of residue according to a thin-layer densitometric method (Bunseki Kagaku, Vol. 23, No. 9, p. 1016, 1974). More specifically, upon completion of the severe treatment, 100 μg of each test compound was applied to a thin-layer plate and this plate was developed with a chloroform-ethanol mixture (volume ratio 10:1). The thin-layer plate used for this purpose was a TLC Plate Aluminum Oxide 60F254 (manufactured by Merck Co.; 0.25 mm in thickness and 20 cm×20 cm in size), and it was developed over a distance of 15 cm. Then, using a Shimazu Two-wavelength Chromatoscanner CS-910 (manufactured by Shimazu Seisakusho), the resulting spot was analyzed at a wavelength of 300-315 nm.
For purposes of comparison, the percentages of residue of Omeprazole (at a measuring wavelength of 300 nm) and Compounds α and β (at a measuring wavelength of 310 nm) were determined in the same manner as described above and are also shown in Table 1.

Another data set has as its system Shay's ulcer. The data set is described as follows: Inhibitory effect on Shay's ulcer. It is filed as in vivo, male Wistar rats. Conditions: Rattus norvegicus; oral, rats; 30 minutes before ligation; 14 hours; read-out: Inhibitory effect on Shay's ulcer, ID50. As for the experimental part:
as §1
In rats which had been fasted for 48 hours, the pyloric end of the stomach was ligated and they were maintained for 14 hours without giving any food or water. Then, each rat was sacrificed and the area of the ulcer(s) formed in the forestomach part was measured. The ulceration index was calculated on the basis of the data thus obtained. The test compounds were administered 30 minutes before ligation.
as §2

Another data set relates to Indomethacin ulcer. The data set is described as follows: Inhibitory effect on indomethacin ulcer. It is filed as in vivo, male Wistar rats. The conditions noted are these: Rattus norvegicus; oral, rats; 30 minutes before indomethacin 25 mg/kg s.c.; 7 hours; read-out: Inhibitory effect on Indomethacin ulcer, ID50. As for the experimental part:
as §1
To rats which had been fasted for 24 hours, indomethacin was subcutaneously administered in a dose of 25 mg/kg. After 7 hours, each rat was sacrificed and the length of the ulcer(s) formed in the glandular stomach part was measured. The ulceration index was calculated on the basis of the data thus obtained. The test compounds were administered 30 minutes before administration of indomethacin.
as §2

Data set [2] is described as follows: Acute toxicity test (LD50). Conditions: rat, in vivo, rats. As for the experimental part:
The acute toxicity (LD50) of several typical examples of the present compounds [I] (i.e., the compounds of Examples 1, 8, 13, 19, 24, 26 and 33) was tested with 5-weeks-old male Wistar rats. […] When Omeprazole was administered orally, its LD50 value was greater than 4000 mg/kg.

Where [3] appears, read: ip, intraperitoneal administration.

Take `COc1c(C)cnc(C[S+]([O-])c2nc3ncc(Br)cc3[nH]2)c1C` (stereo not drawn) [Compound α, 2-[2-(3,5-dimethyl-4-methoxy)pyridylmethylsulfinyl]-6-bromoimidazo[4,5-b]pyridine, reference compound]: the “inhibitory effects on various experimental ulcers (in words)” value in data set [1] is given as “not satisfactorily reflected in the in vivo tests”. Moreover, in the data set “physchem”, the “storage stability (in words)” value was “defective in storage stability”. This compound had a remaining at 192 h in the data set “physchem” (75% rh) of 0%. For the same compound, the ED50 in the data set on Shay's ulcer was at least 100 mg/kg; in the data set on Indomethacin ulcer, 78.4 mg/kg.
Taken in the same sequence, the figures for `COc1c(C)cnc(C[S+]([O-])c2nc3ncc(C)cc3[nH]2)c1C` (stereo not drawn) [Compound β, 2-[2-(3,5-dimethyl-4-methoxy)pyridylmethylsulfinyl]-6-methylimidazo[4,5-b]-pyridine, reference compound] were “not satisfactorily reflected in the in vivo tests”, “defective in storage stability”, 9%, 42 mg/kg and 29.5 mg/kg.
In general, LD50 refers to the dose at which mortality reaches 50%. The low end stands for greater toxicity, the high end for lower toxicity. Compound `COc1ccc2[nH]c([S+]([O-])Cc3ncc(C)cc3C)nc2n1` (stereo not drawn) [Example 1, 2-[2-(3,5-Dimethyl)pyridylmethylsulfinyl]-5-methoxyimidazo[4,5-b]pyridine] showed a remaining at 192 h in the data set “physchem” (75% rh) of 98%. The median lethal dose (LD50) in data set [2] (setting [3]) was above 500 mg/kg; in data set [2] (oral administration), above 4000 mg/kg. Further, the ED50 with Shay's ulcer amounted to 11 mg/kg; in the data set with Indomethacin ulcer, 12.9 mg/kg.
As for `CCOc1ccc2[nH]c([S+]([O-])Cc3ncc(C)c(C)c3C)nc2n1` (stereo not drawn) [Example 8, 2-[2-(3,4,5-Trimethyl)pyridylmethylsulfinyl]-5-ethoxyimidazo[4,5-b]pyridine], the remaining at 192 h in the data set “physchem” (75% rh) is 96%. The LD50 is above 500 mg/kg in data set [2] (setting [3]) and above 4000 mg/kg in data set [2] (oral administration). Besides, the ED50 was 15.1 mg/kg in the data set with Shay's ulcer and 18.8 mg/kg in the data set with Indomethacin ulcer.
Taken in the same sequence, the figures for `COc1cc(C[S+]([O-])c2nc3nc(OCC4CC4)ccc3[nH]2)ncc1C` (stereo not drawn) [Example 13, 2-[2-(4-Methoxy-5-methyl)pyridylmethylsulfinyl]-5-cyclopropylmethyloxyimidazo[4,5-b]pyridine] were 88%, above 500 mg/kg, above 4000 mg/kg, 17.4 mg/kg and 21.9 mg/kg.
Taken in the same sequence, the figures for `COc1c(C)cnc(C[S+]([O-])c2nc3nc(OCC4CC4)ccc3[nH]2)c1C` (stereo not drawn) [Example 24, 2-[2-(3,5-Dimethyl-4-methoxy)pyridylmethylsulfinyl]-5-cyclopropylmethyloxyimidazo[4,5-b]pyridine] were 94%, above 500 mg/kg, above 4000 mg/kg, 10.8 mg/kg and 13.1 mg/kg.
In the case of `COc1c(C)cnc(C[S+]([O-])c2nc3nc(OCC(F)(F)F)ccc3[nH]2)c1C` (stereo not drawn) [Example 26, 2-[2-(3,5-Dimethyl-4-methoxy)pyridylmethylsulfinyl]-5-(2,2,2-trifluoroethoxy)imidazo[4,5-b]pyridine], in the data set “physchem” (75% rh), the remaining at 192 h stood at 92%. The values for the LD50 in data set [2] (setting [3]) and in data set [2] (oral administration) were above 500 mg/kg and above 4000 mg/kg, respectively. Also, the ED50 came to 14.7 mg/kg in the data set with Shay's ulcer and 15.8 mg/kg with Indomethacin ulcer.
Taken in the same sequence, the figures for `CCCCCCCOc1ccc2[nH]c([S+]([O-])Cc3ncc(C)cc3C)nc2n1` (stereo not drawn) [Example 33, 2-[2-(3,5-Dimethyl)pyridylmethylsulfinyl]-5-n-heptyloxyimidazo[4,5-b]pyridine] were 89%, above 500 mg/kg, above 4000 mg/kg, 19.2 mg/kg and 23.2 mg/kg.
On to `COc1ccc2[nH]c([S+]([O-])Cc3ncc(C)c(OC)c3C)nc2c1` (stereo not drawn) [Omeprazole, reference compound], for which, in “physchem”, the “storage stability (in words)” value is listed as “undergoes a higher degree of deterioration than might be expected”. For the same compound, the remaining at 192 h in “physchem” (after treatment at 60° C. and 75% RH for 8 days, read-out: Storage stability, Percentage of residue) came out at 3%. The compound also registered an LD50 in data set [2] (oral administration) above 4000 mg/kg. The figures for the ED50 in the data set on Shay's ulcer and with Indomethacin ulcer were 30.3 mg/kg and 24.7 mg/kg, respectively.

Source of the values: patent US4808596A, “Imidazo[4,5-b]pyridine compounds and pharmaceutical compositions containing same” (Tokyo Tanabe Company, Ltd., priority 1986, dated 1989).
